Values quoted from earlier work, collected in publication PMC9998351 (Steroids, 2023).

Tested on: CRPC CWR22Rv1 xenograft tumors
Settings: CWR22Rv1 xenograft; 2 at 7.53-fold lower equimolar dose than Gal; p < 0.01; ref [26]; cited from earlier work

Compound: C[C@]12CC[C@H](O)CC1=CC[C@@H]1[C@@H]2CC[C@]2(C)C(n3cnc4ccccc43)=CC[C@@H]12 [Gal, Galeterone, reference compound]
- Suppression of tumor growth: 47%
